Molecules are shown by their SMILES. Active and inactive are the calls of the source. The rule behind the calls is not given here.

The subject of test [1] is Candida albicans. Kind of test: Antifungal activity against Candida albicans assessed as lowest dose level for total inhibition of fungal growth. Format: functional.
Another test concerns Mucor. In words: Antifungal activity against Mucor species assessed as lowest dose level for total inhibition of fungal growth. Format: functional.
The subject of a further test is Aspergillus fumigatus. Kind of test: Antifungal activity against Aspergillus fumigatus assessed as lowest dose level for total inhibition of fungal growth. Format: functional.
The subject of the next test is Sporothrix schenckii. Kind of test: Antifungal activity against Sporothrix schenckii assessed as lowest dose level for total inhibition of fungal growth. Format: functional.
The next test concerns Saprolegnia. Kind of test: Antifungal activity against Saprolegnia species assessed as lowest dose level for total inhibition of fungal growth. Format: functional.
A further test has as its system Phialophora verrucosa. In words: Antifungal activity against Phialophora verrucosa assessed as lowest dose level for total inhibition of fungal growth. Format: functional.
In test [2] the test system is Erysipelothrix rhusiopathiae. In words: Antibacterial activity against Erysipelothrix insidiosa assessed as lowest dose level for total inhibition of bacterial growth. Format: functional.
Test [3] relates to Staphylococcus haemolyticus. In words: Antibacterial activity against Staphylococcus haemolyticus assessed as lowest dose level for total inhibition of bacterial growth. Format: functional.
In the next test the test system is Streptococcus pyogenes. In words: Antibacterial activity against Streptococcus pyogenes assessed as lowest dose level for total inhibition of bacterial growth. Format: functional.
Test [4] concerns Candida albicans. Kind of test: In vivo antifungal activity against Candida albicans topically infected in guinea pig assessed as animal cured at 10 mg/kg, po. Format: functional, organism-based. Also on record: dose 10 mg/kg.
The next test concerns Microsporum canis. Kind of test: Antifungal activity against Microsporum canis assessed as lowest dose level for total inhibition of fungal growth. Format: functional.
The test system of test [5] is Trichophyton mentagrophytes. Kind of test: Antifungal activity against Trichophyton mentagrophytes assessed as lowest dose level for total inhibition of fungal growth. Format: functional.
A further test has as its system Trichophyton rubrum. In words: Antifungal activity against Trichophyton rubrum assessed as lowest dose level for total inhibition of fungal growth. Format: functional.
Another test concerns Cryptococcus neoformans. Kind of test: Antifungal activity against Cryptococcus neoformans assessed as lowest dose level for total inhibition of fungal growth. Format: functional.
For a further test, the system named is Candida tropicalis. Kind of test: Antifungal activity against Candida tropicalis assessed as lowest dose level for total inhibition of fungal growth. Format: functional.

Consider `Clc1ccc(CC(Cn2ccnc2)c2ccccc2Cl)cc1.O=[N+]([O-])O` (stereo not given), for which the Activity in the test on Candida albicans [1] was determined as 10 µg/mL; in the test with Mucor, 100 µg/mL; in the test on Aspergillus fumigatus, 100 µg/mL; in the test with Sporothrix schenckii it was 10 µg/mL; in the test on Saprolegnia it was 100 µg/mL; with Phialophora verrucosa it was 100 µg/mL. Moreover, the Activity in test [2] was 1 µg/mL; in [3] it was 100 µg/mL; with Streptococcus pyogenes, 1 µg/mL; with Microsporum canis, 10 µg/mL; in [5], less than 1 µg/mL; in the test on Trichophyton rubrum it was less than 1 µg/mL. The results for the Activity in the test with Cryptococcus neoformans and with Candida tropicalis were less than 1 µg/mL and greater than 100 µg/mL, respectively. Also, the result in the test on Candida albicans [4] was Active.

For `Clc1ccc(CC(Cn2ccnc2)c2c(Cl)cccc2Cl)cc1.O=[N+]([O-])O` (stereo not given), the Activity is 100 µg/mL with Candida albicans [1]; greater than 100 µg/mL in the test with Mucor; 100 µg/mL in the test with Aspergillus fumigatus; 100 µg/mL with Sporothrix schenckii; 100 µg/mL with Saprolegnia; 100 µg/mL with Phialophora verrucosa. Moreover, the Activity is less than 1 µg/mL in test [2]; 100 µg/mL in [3]; less than 1 µg/mL in the test on Streptococcus pyogenes; less than 1 µg/mL in the test on Microsporum canis; less than 1 µg/mL in [5]; less than 1 µg/mL in the test on Trichophyton rubrum. Besides, the values for the Activity in the test with Cryptococcus neoformans and in the test on Candida tropicalis were 100 µg/mL and greater than 100 µg/mL, respectively. Further, in the test with Candida albicans [4], the result was inactive.

For the molecule `Clc1ccc(C(Cc2ccccc2Cl)Cn2ccnc2)cc1.O=[N+]([O-])O` (stereo not given), the Activity with Candida albicans [1] turned out to be 100 µg/mL; with Mucor, 10 µg/mL; with Aspergillus fumigatus, 100 µg/mL; in the test on Sporothrix schenckii, 100 µg/mL; with Saprolegnia, 100 µg/mL; in the test on Phialophora verrucosa, 100 µg/mL. Besides, the Activity in test [2] is 1 µg/mL; in test [3], 10 µg/mL; with Streptococcus pyogenes it was 10 µg/mL; in the test on Microsporum canis, 10 µg/mL; in [5] it was less than 1 µg/mL; with Trichophyton rubrum, less than 1 µg/mL. Also, the values for the Activity with Cryptococcus neoformans and in the test on Candida tropicalis were less than 1 µg/mL and 100 µg/mL, respectively. For the same molecule, in the test with Candida albicans [4], the result was inactive.

In the case of `COc1ccc(CCC(Cn2ccnc2)c2ccc(Cl)cc2Cl)cc1.O=[N+]([O-])O` (stereo not given), the Activity is greater than 100 µg/mL in the test on Candida albicans [1]; 100 µg/mL in the test on Mucor; 100 µg/mL in the test with Aspergillus fumigatus; 10 µg/mL with Sporothrix schenckii; 10 µg/mL in the test with Saprolegnia; 10 µg/mL in the test with Phialophora verrucosa. The Activity in test [2] was less than 1 µg/mL; in test [3], 1 µg/mL; in the test on Streptococcus pyogenes it was less than 1 µg/mL; in the test with Microsporum canis, 10 µg/mL; in [5], less than 1 µg/mL; in the test on Trichophyton rubrum, less than 1 µg/mL. Besides, the Activity in the test on Cryptococcus neoformans was less than 1 µg/mL; in the test on Candida tropicalis it was greater than 100 µg/mL. For the same molecule, in the test on Candida albicans [4], the outcome was inactive.

`Clc1ccc(CCC(Cn2ccnc2)c2ccc(Cl)cc2Cl)c(Cl)c1.O=[N+]([O-])O` (stereo not given): the Activity is greater than 100 µg/mL in the test with Candida albicans [1]; greater than 100 µg/mL in the test on Mucor; 100 µg/mL with Aspergillus fumigatus; 10 µg/mL in the test on Sporothrix schenckii; 100 µg/mL with Saprolegnia; greater than 100 µg/mL in the test on Phialophora verrucosa. Besides, the Activity was less than 1 µg/mL in [2]; 100 µg/mL in test [3]; less than 1 µg/mL in the test with Streptococcus pyogenes; 10 µg/mL with Microsporum canis; less than 1 µg/mL in [5]; less than 1 µg/mL with Trichophyton rubrum. Further, the results for the Activity in the test on Cryptococcus neoformans and in the test on Candida tropicalis were less than 1 µg/mL and greater than 100 µg/mL, respectively. Moreover, the outcome with Candida albicans [4] was inactive.

`COc1ccc(CC(Cn2ccnc2)c2ccc(Cl)cc2Cl)cc1.O=[N+]([O-])O` (stereo not given): the Activity in the test on Candida albicans [1] was determined as 10 µg/mL; in the test on Mucor it was 10 µg/mL; in the test on Aspergillus fumigatus it was 100 µg/mL; with Sporothrix schenckii it was 10 µg/mL; with Saprolegnia, 100 µg/mL; in the test on Phialophora verrucosa it was 10 µg/mL. The Activity in test [2] is 1 µg/mL; in test [3] it was 10 µg/mL; in the test with Streptococcus pyogenes it was 1 µg/mL; in the test on Microsporum canis, 100 µg/mL; in [5] it was less than 1 µg/mL; in the test on Trichophyton rubrum, less than 1 µg/mL. Moreover, the Activity is less than 1 µg/mL with Cryptococcus neoformans and 10 µg/mL in the test on Candida tropicalis. Also, in the test on Candida albicans [4], the outcome was inactive.

Consider `Clc1ccc(CC(Cn2ccnc2)c2ccc(Cl)cc2Cl)cc1.O=[N+]([O-])O` (stereo not given), for which the Activity with Candida albicans [1] was 100 µg/mL; with Mucor, 100 µg/mL; with Aspergillus fumigatus, 100 µg/mL; with Sporothrix schenckii, 10 µg/mL; in the test on Saprolegnia it was less than 1 µg/mL; in the test with Phialophora verrucosa, 100 µg/mL. Further, the Activity in test [2] was less than 1 µg/mL; in [3], 10 µg/mL; with Streptococcus pyogenes, less than 1 µg/mL; with Microsporum canis it was 10 µg/mL; in test [5] it was less than 1 µg/mL; in the test on Trichophyton rubrum it was less than 1 µg/mL. The results for the Activity in the test on Cryptococcus neoformans and with Candida tropicalis were less than 1 µg/mL and 100 µg/mL, respectively. Further, the outcome in the test with Candida albicans [4] was inactive.
